# Source: patent publication US20080199464A1, “Combination Therapy with Angiogenesis Inhibitors” (Genentech, Inc., priority 2007, published 2008)
# Columns and labels:
# [1] = tested on: LS174T human colon carcinoma xenografts; assay: Growth inhibition of established LS174T human colon carcinoma xenografts; assay type: in vivo, athymic nude mice; conditions: Day 18 of separate 25-day study; high sunitinib dose 50 mg/kg daily, alone or with B20-4.1
# Procedure: (§1) Volume was calculated using the formula:
# (§2) Tumor Volume(mm^3)=(W2×l)/2
# (§3) Tumors were measured twice weekly using calipers. […] Treatment outcome was based on tumor growth inhibition (TGI).
# (§4) Animals were monitored for regression responses.
# [2] = tested on: H1299 human non-small cell lung carcinoma (NSCLC) xenografts; assay: Growth inhibition of established H1299 human NSCLC xenografts; assay type: in vivo, athymic nude mice; conditions: Day 19, longer term study, alone or with B20-4.1
# Procedure: as §1, §2, §3, §4
# [3] = tested on: 786-O renal cell carcinoma (RCC) xenografts; assay: Growth inhibition of established 786-O renal cell carcinoma xenografts; assay type: in vivo, athymic nude mice; conditions: high sunitinib dose 50 mg/kg daily, alone or with B20-4.1
# Procedure: as §1, §2, §3, §4
# [4] = tested on: Caki-2 human renal cell carcinoma xenografts; assay: Growth inhibition of established Caki-2 renal cell carcinoma xenografts; assay type: in vivo, SCID mice
# Procedure: as §1, §2, §3, §4
smiles,measurement,setting,value
"CCN(CC)CCNC(=O)c1c(C)[nH]c(/C=C2\C(=O)Nc3ccc(F)cc32)c1C [sunitinib, N-[2-(diethylamino)ethyl]-5-[(Z)-(5-fluoro-1,2-dihydro-2-oxo-3H-indol-3-ylidine)methyl]-2,4-dimethyl-1H-pyrrole-3-carboxamde]",TGI (tumor growth inhibition),[1],43%
same,TGI (tumor growth inhibition),[2]; sunitinib 25 mg/kg daily,32%
same,TGI (tumor growth inhibition),[2]; sunitinib 50 mg/kg daily,62%
same,TGI (tumor growth inhibition),[3],80%
same,TGI (tumor growth inhibition),"[4]; Day 29, high dose (50 mg/kg) sunitinib, alone or with B20-4.1",62%
same,Day 29 mean tumor volumes (MTVs),[4]; low dose (25 mg/kg) sunitinib monotherapy,352 mm^3
